Data from article PMC7226483, “Exploring the Synergy between PARP and CHK1 Inhibition in Matched BRCA2 Mutant and Corrected Cells” (Cancers, 2020).

Molecular target: T1, CHK1 (Cricetulus griseus, UniProt G3I7I8)
T1 construct: gene Chek1
T1 sequence (G3I7I8 1-476): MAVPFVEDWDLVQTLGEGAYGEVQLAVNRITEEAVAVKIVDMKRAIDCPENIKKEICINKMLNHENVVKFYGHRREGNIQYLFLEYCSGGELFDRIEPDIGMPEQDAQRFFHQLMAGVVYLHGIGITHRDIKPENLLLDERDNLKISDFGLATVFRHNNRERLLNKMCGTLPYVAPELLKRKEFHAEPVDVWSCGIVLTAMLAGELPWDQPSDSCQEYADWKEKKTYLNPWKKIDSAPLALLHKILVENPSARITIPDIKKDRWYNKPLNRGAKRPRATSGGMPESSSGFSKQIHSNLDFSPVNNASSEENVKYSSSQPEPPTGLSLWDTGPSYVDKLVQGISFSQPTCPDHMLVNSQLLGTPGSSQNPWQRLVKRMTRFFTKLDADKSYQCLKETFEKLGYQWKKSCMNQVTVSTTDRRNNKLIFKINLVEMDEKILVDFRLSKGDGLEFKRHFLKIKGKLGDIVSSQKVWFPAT
Assay: Western blot of CHK1 S296 autophosphorylation in rucaparib-treated V-C8 and V-C8.B2 cells
Assay type: cell-based
Settings: read-out: % inhibition at 50 nM

inhibition at 0.05 µM: 91.4%
SMILES: Cn1cc(-c2[nH]c3cc(NC(=O)[C@H](N)C4CCCCC4)cc4c3c2C=NNC4=O)cn1 [PF-477736]
